The record followed here is article PMC6222450, “Computer-Aided Studies for Novel Arylhydantoin 1,3,5-Triazine Derivatives as 5-HT6 Serotonin Receptor Ligands with Antidepressive-Like, Anxiolytic and Antiobesity Action In Vivo” (Molecules : A Journal of Synthetic Chemistry and Natural …, 2018).

SMILES strings stand for the structures.

The target of one assay is T1, dopaminergic D2LR (Homo sapiens, UniProt P14416).
T1 construct: expressed in transfected cells; host or cells: HEK-293
Put plainly: Radioligand binding assay, D2LR, [3H]-Raclopride. The settings on record: human D2L receptor stably expressed in HEK-293 cells; read-out: Ki D2 [3H]-Raclopride.

A further assay addresses T2, 5-HT1A (Homo sapiens, UniProt P08908).
T2 construct: expressed in transfected cells; host or cells: HEK-293
T2 sequence (P08908 1-422): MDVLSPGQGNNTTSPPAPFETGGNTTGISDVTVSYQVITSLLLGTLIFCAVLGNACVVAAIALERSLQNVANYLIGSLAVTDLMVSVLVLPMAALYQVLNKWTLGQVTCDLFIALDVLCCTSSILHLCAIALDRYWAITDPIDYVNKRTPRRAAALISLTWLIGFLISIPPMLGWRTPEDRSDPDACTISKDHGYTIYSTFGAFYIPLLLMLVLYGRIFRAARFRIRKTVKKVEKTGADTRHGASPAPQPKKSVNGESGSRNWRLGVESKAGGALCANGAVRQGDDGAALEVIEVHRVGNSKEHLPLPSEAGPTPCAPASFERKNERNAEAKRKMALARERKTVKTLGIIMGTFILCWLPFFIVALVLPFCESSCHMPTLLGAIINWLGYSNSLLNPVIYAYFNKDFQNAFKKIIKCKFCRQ
Kind of assay: Radioligand binding assay, 5-HT1A, [3H]-8-OH-DPAT. As to conditions: human receptor stably expressed in HEK-293 cells.

A further assay deals with T3, 5-HT2A (Homo sapiens, UniProt P28223).
T3 construct: expressed in transfected cells; host or cells: HEK-293
T3 sequence (P28223 whole entry): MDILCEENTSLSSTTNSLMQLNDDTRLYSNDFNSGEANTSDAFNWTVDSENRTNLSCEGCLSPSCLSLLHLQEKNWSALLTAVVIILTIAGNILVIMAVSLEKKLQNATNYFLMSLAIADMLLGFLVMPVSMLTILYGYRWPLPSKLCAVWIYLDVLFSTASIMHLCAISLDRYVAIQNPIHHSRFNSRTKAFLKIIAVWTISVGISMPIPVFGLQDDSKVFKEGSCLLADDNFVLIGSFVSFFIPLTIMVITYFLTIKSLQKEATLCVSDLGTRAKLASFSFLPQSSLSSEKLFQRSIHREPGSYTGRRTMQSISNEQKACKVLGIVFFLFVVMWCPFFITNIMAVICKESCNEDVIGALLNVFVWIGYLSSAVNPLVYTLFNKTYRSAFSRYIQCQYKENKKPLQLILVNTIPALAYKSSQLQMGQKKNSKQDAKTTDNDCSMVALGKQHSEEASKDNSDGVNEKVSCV
Kind of assay: Radioligand binding assay, 5-HT2A, [3H]-Ketanserin. As to conditions: human receptor stably expressed in HEK-293 cells.

In the next assay the target is T4, 5-HT7bR (Homo sapiens, UniProt P34969).
T4 construct: expressed in transfected cells; host or cells: HEK-293
T4 sequence (P34969 1-432 limits assumed): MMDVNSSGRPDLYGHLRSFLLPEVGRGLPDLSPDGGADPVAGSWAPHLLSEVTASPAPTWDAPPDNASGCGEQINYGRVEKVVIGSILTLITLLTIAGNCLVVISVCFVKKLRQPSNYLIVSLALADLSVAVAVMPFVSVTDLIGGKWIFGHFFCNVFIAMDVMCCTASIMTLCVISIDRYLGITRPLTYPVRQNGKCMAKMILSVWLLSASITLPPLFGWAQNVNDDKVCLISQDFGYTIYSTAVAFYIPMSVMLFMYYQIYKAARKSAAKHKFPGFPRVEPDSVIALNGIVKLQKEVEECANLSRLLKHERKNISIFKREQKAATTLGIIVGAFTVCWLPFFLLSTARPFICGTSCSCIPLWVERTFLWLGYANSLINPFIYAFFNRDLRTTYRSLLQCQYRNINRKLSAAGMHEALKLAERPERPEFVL
Kind of assay: Radioligand binding assay, 5-HT7bR, [3H]-5-CT. The settings on record: human 5-HT7b receptor stably expressed in HEK-293 cells; read-out: Ki 5-HT7 [3H]-5-CT.

Assay [1] has as its system male Wistar rats. Kind of assay: Forced swim test (FST). Type of assay: in vivo, rat. The settings on record: i.p. 60 min before test, 5 min observation, p < 0.05. Here is the method: (§1) The experiments were performed on male Wistar rats (200–220 g—behavioural test or 170–190 g—metabolic assay) obtained from an accredited animal facility at the Jagiellonian University Medical College, Poland. The animals were housed in a group of four in a controlled environment (ambient temperature 21 ± 2 °C; relative humidity 50–60%; 12 h light/dark cycles (lights on at 8:00). Standard laboratory food (LSM-B) and filtered water were freely available (behavioral tests). Animals were assigned randomly to treatment groups. All the experiments were performed by two observers unaware of the treatment applied between 9:00 and 14:00 on separate groups of animals. All animals were used only once.
(§2) Compounds were suspended in 1% Tween 80 immediately before administration in a volume of 2 mL/kg—behavioral tests or 1 mL/kg—body weight measures. Compounds were administered intraperitoneally (i.p.) 60 min before testing—behavioral tests. Control animals received vehicle (1% Tween 80) according to the same schedule.
The experiment was carried out according to the method of Porsolt et al.. […] On the following day (24 h later), the rats were replaced in the cylinder and the total duration of immobility was recorded during the whole 5-min test period. […]

In assay [2] the test system is male Wistar rats. Put plainly: Vogel conflict drinking test. Type of assay: in vivo, rat. The settings on record: 3 mg/kg i.p. 60 min before test, 5 min session, p < 0.05. Here is the method:
as §1, §2
The testing procedure was based on a method of Vogel et al. and used the Anxiety Monitoring System “Vogel test” produced by TSE Systems (Germany). […] The number of licks and the number of shocks received during a 5 min experimental session were recorded automatically.

Assay [3] in a line: Body weight of non-obese rats fed palatable diet (model of excessive eating). Type of assay: in vivo, rat. From the text: In order to determine the anorectic activity of 6 or 26, the model of excessive eating was used. Male Wistar rats (170–190 g) were housed in a pair in plastic cages in constant temperature facilities exposed to a light-dark cycle. Water and food were available ad libitum. Two groups of 6 rats were fed with diets consisting of milk chocolate with nuts, cheese, salted peanuts, and 7% condensed milk and also had access to standard feed (Labofeed B, Morawski Manufacturer Feed, Kcynia, Poland) and water ad libitum for 3 weeks. Palatable control group (palatable diet + vehicle) received vehicle (1% Tween 80, intraperitoneally), while palatable test group (palatable diet + 6 or palatable + 26) was injected (intraperitoneally) with 6 or 26 at the dose of 5 mg/kg b.w. dissolved in 1% Tween 80 (1 mL/kg). Body weights were measured daily, immediately prior to administration of drugs.
The palatable diet contained: 100 g peanuts—614 kcal; 100 mL condensed milk—131 kcal; 100 g milk chocolate—529 kcal; 100g cheese (Greek type)—270 kcal. The standard diet contained 100 g feed—280 kcal.

The nature of assay [4]: Body weight of non-obese rats fed only standard diet. Type of assay: in vivo, rat. The settings on record: rats consuming standard feed, 5 mg/kg b.w. i.p. On the procedure: Male Wistar rats (170–190 g) were housed in a pair in plastic cages in constant temperature facilities exposed to a light-dark cycle. Control group (standard diet + vehicle) received vehicle (1% Tween 80, intraperitoneally), while the test group (standard diet + 6 or standard diet + 26) was injected (intraperitoneally) with 6 or 26 at the dose of 5 mg/kg b.w. dissolved in 1% Tween 80 (1 mL/kg). Body weights were measured daily immediately prior to administration of drugs.

T1 sequence (P14416 whole entry): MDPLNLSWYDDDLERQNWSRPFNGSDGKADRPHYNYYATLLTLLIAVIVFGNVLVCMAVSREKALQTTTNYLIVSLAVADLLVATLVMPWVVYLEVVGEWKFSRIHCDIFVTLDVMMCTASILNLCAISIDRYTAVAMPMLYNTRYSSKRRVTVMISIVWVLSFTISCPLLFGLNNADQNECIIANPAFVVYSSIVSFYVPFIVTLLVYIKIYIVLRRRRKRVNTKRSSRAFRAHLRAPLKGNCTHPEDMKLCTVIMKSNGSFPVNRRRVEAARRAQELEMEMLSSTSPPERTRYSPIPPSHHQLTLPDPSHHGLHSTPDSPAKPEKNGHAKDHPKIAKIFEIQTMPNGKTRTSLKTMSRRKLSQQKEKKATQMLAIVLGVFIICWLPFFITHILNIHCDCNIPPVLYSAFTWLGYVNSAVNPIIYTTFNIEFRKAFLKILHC

What is called Ki is the equilibrium dissociation constant of an inhibitor or competing ligand from its target. As for `CN1CCN(c2nc(N)nc(CN3C(=O)NC(C)(c4ccc5ccccc5c4)C3=O)n2)CC1` (stereo not shown) [Compound 26, 3-((4-Amino-6-(4-methylpiperazin-1-yl)-1,3,5-triazin-2-yl)methyl)-5-methyl-5-(naphthalen-2-yl)imidazolidine-2,4-dione], the Ki on dopaminergic D2LR came out at 4.25 µM; at 5-HT1A, 14.2 µM; at 5-HT2A it was 17.2 µM; at 5-HT7bR, 0.514 µM. For the same compound, the “decrease of immobility time vs. vehicle treated group” value in the assay on male Wistar rats [1] is “about 20%”. Also, the “increase of number of accepted shocks” value in the assay on male Wistar rats [2] is 76%. The “day of experiment from which groups differed significantly” value in assay [3] (rats fed palatable feed, 5 mg/kg b.w. i.p. daily) was 12 days. Also, in assay [3] (rats fed palatable feed, 5 mg/kg b.w. i.p., 21 days), the “weight gain vs control group” value is given as “significantly less weight gain”. Further, the “body weight vs control animals fed standard feed” value in assay [3] (treated rats with access to preferential feed, 5 mg/kg b.w. i.p.) is “did not differ significantly”. Besides, the “effect on body weight” value in assay [4] was “No effects on body weight”.
